Test results as given in article PMC12682947, “Identification of New KCNT1‐Epilepsy Drugs by In Silico, Cell, and Drosophila Modeling” (Annals of Neurology, 2025).
Where “and” joins values, the source holds several entries; their conditions need not be identical. Equal entries are not always repeated. Entries after “also recorded” stand apart in the source; their conditions may differ. Where two headings read alike, the source gives them in different places.

Assay: Plasma pharmacokinetics and brain uptake of antrafenine in mice (LC-MS)
Type: in vivo, male C57BL/6 mice
Procedure: Plasma pharmacokinetics and brain uptake of antrafenine was analyzed in male C57BL/6 mice. Antrafenine was administered intravenously at 1 mg/kg and 3 mg/kg into the tail vein and plasma was collected over a 24‐hour sampling period (n = 3 mice/time point). Following administration, the brain was harvested at 4 times over 24 hours and snap frozen in dry ice and subsequently stored frozen (−80°C) until analysis. The concentration of antrafenine was determined using liquid chromatography–mass spectrometry. The in vivo study was conducted using established procedures in accordance with the Australian Code of Practice for the Care and Use of Animals for Scientific Purposes, and the study protocols were reviewed and approved by the Monash Institute of Pharmaceutical Sciences Animal Ethics Committee. See Supporting Information for detailed methods and results. […]
Plasma pharmacokinetics and brain uptake of antrafenine was analyzed in male C57BL/6 mice by the Monash University Centre for Drug Candidate Optimisation. Antrafenine was administered intravenously at 1 mg/kg and 3 mg/kg into the tail vein and plasma was collected over a 24 h sampling period (n=3 mice/time point). Following administration, brain was harvested at four times over 24 hours and snap frozen in dry ice and subsequently stored frozen (-80°C) until analysis. The concentration of antrafenine was determined using liquid chromatography–mass spectrometry (LC-MS).
4 hrs post IV administration of 3 mg/kg Antrafenine was taken as a representative time to compare plasma and brain concentrations. At 4 hrs we determined a mean plasma concentration of 47.5 nM (+5.9 nM SD) and a mean brain concentration of 13.9 nM (+3 nM SD). […]
Plasma pharmacokinetics and brain uptake of antrafenine
The systemic exposure of antrafenine was studied in non-fasted male C57BL/6 mice weighing 19.8 – 24.6 g. Mice had access to food and water ad libitum throughout the pre- and post-dose period. Antrafenine hydrochloride Mw 588.554 (Lot#10-KSS-51-2) was obtained from Toronto Research Chemicals/LGC Standards, Canada, and was dissolved in vehicle; 5% (v/v) DMSO, 25% (v/v) 40% (w/v) Trappsol in 0.9% (w/v) saline, 70% (v/v) 40 mM citrate buffered saline at pH 3.5 at concentrations of 0.5 mg/mL and 1.5 mg/mL.
On the day of dosing, each formulation was prepared by dissolving solid antrafenine in DMSO using vortexing and sonication prior to addition of 40% (w/v) Trappsol in 0.9% (w/v) saline followed by 40 mM citrate-buffered saline at pH 3.5. Each sample was vortexed to create a colorless / light yellow solution and was filtered through a 0.22 µm syringe filter prior to dosing.
Administration of antrafenine was performed by a single bolus IV injection into the tail vein of C57BL/6 male mice using a 1ml syringe with a 25G x 1” needle at a volume of 2 mL/kg. Each […]
formulation was dosed to mice by bolus injection into the lateral tail vein (2 mL/kg) and blood samples were collected at 1, 2, 5, 15 and 30 min; 1, 2, 4, 7.5 and 24 h post-dose (n=3 mice per time point for each formulation). A maximum of three blood samples were obtained from each mouse, with plasma samples being taken via submandibular bleed (approximately 120 μL).
Blood was collected into polypropylene Eppendorf tubes containing heparin as anticoagulant and stabilization cocktail (Complete® (containing a protease inhibitor cocktail and EDTA) and potassium fluoride) to minimize the potential for ex vivo compound degradation in blood/plasma samples. Once collected, blood samples were centrifuged immediately, supernatant plasma was removed, snap frozen in dry ice and stored at -80°C until analysis by LC-MS. In addition, at the 15 min, 1, 4 and 24 h post-dose time points, the whole brain was rapidly removed from the carcass soon after the blood collection. The whole brains were blotted to remove excess blood, placed into pre-weighed polypropylene vials and weighed. The brains were snap frozen in dry […]

[1] = IV 1 mg/kg, 0.25 h, individual mice, 1 mg/kg
[2] = IV 1 mg/kg, 1 h, individual mice, 1 mg/kg
[3] = IV 1 mg/kg, 4 h, individual mice, 1 mg/kg
[4] = IV 3 mg/kg, 0.25 h, individual mice, 3 mg/kg
[5] = IV 3 mg/kg, 1 h, individual mice, 3 mg/kg
[6] = IV 3 mg/kg, 4 h, individual mice, 3 mg/kg

Structure (SMILES): O=C(OCCN1CCN(c2cccc(C(F)(F)F)c2)CC1)c1ccccc1Nc1ccnc2cc(C(F)(F)F)ccc12 [antrafenine]
- detection in brain at 24 h (24 h post-dose, either dose level (1 and 3 mg/kg IV)): not detected
- B:P ratio Individual [1]: 0.027 and 0.094 and 0.028
- Plasma Concentration Individual [1]: 233 nM and 344 nM
- concentration at 4 h (IV 1 mg/kg, 0.25 h, individual mice, 1 mg/kg, read-out: Brain Parenchyma Concentration Individual): 8.5 nM and 22 nM and 9.5 nM
- B:P ratio Individual [2]: 0.087 and 0.046 and 0.096
- Plasma Concentration Individual [2]: 112 nM and 104 nM
- concentration at 4 h (IV 1 mg/kg, 1 h, individual mice, 1 mg/kg, read-out: Brain Parenchyma Concentration Individual): 10.5 nM and 5.2 nM and 9.9 nM
- B:P ratio Individual [3]: 0.46 and 0.26 and 0.17
- Plasma Concentration Individual [3]: 14 nM and 12.9 nM
- concentration at 4 h (IV 1 mg/kg, 4 h, individual mice, 1 mg/kg, read-out: Brain Parenchyma Concentration Individual): 5.7 nM and 3.7 nM and 2.2 nM
- Plasma Concentration Individual (IV 1 mg/kg, 24 h, individual mice, 1 mg/kg): 1.6 nM and 1.8 nM
- B:P ratio Individual [4]: 0.038 and 0.048
- Plasma Concentration Individual [4]: 705 nM and 648 nM
- concentration at 4 h (IV 3 mg/kg, 0.25 h, individual mice, 3 mg/kg, read-out: Brain Parenchyma Concentration Individual): 26.6 nM and 30.9 nM
- B:P ratio Individual [5]: 0.087 and 0.10
- Plasma Concentration Individual [5]: 208 nM and 349 nM
- concentration at 4 h (IV 3 mg/kg, 1 h, individual mice, 3 mg/kg, read-out: Brain Parenchyma Concentration Individual): 40.2 nM and 18.2 nM and 35.8 nM
- B:P ratio Individual [6]: 0.30 and 0.25
- Plasma Concentration Individual [6]: 41.9 nM and 47.1 nM
- concentration at 4 h (IV 3 mg/kg, 4 h, individual mice, 3 mg/kg, read-out: Brain Parenchyma Concentration Individual): 12.7 nM and 11.7 nM
- Plasma Concentration Individual (IV 3 mg/kg, 24 h, individual mice, 3 mg/kg): 8.8 nM and 5.1 nM
- adverse reactions / toxic effects in mice (IV at 1 and 3 mg/kg): No adverse reactions or compound-related side effects were observed; also recorded: No toxic effects
- apparent plasma clearance (in words) (IV at 1 and 3 mg/kg): low
- volume of distribution (in words) (IV at 1 and 3 mg/kg): high
- concentration at 4 h (male, C57BL/6, mouse, brain parenchyma, iv, 3 mg/kg, IV 3 mg/kg, 4 h, individual mice, read-out: Brain Parenchyma Concentration Individual): 17.3 nM
- concentration at 4 h (male, C57BL/6, mouse, brain parenchyma, iv, 3 mg/kg, IV 3 mg/kg, 4 h, n = 3, read-out: Brain Parenchyma Concentration Mean ± SD): 13.9 nM
- Kp at 0.25 h (male, C57BL/6, mouse, brain, iv, 1 mg/kg, IV 1 mg/kg, 0.25 h, n = 3, read-out: B:P ratio Mean ± SD): 0.05
- concentration at 0.25 h (male, C57BL/6, mouse, brain, iv, 1 mg/kg, IV 1 mg/kg, 0.25 h, n = 3, read-out: Brain Parenchyma Concentration Mean ± SD): 13.3 nM
- Kp at 1 h (male, C57BL/6, mouse, brain, iv, 1 mg/kg, IV 1 mg/kg, 1 h, n = 3, read-out: B:P ratio Mean ± SD): 0.076
- concentration at 1 h (male, C57BL/6, mouse, brain, iv, 1 mg/kg, IV 1 mg/kg, 1 h, n = 3, read-out: Brain Parenchyma Concentration Mean ± SD): 8.5 nM
- Kp at 4 h (male, C57BL/6, mouse, brain, iv, 1 mg/kg, IV 1 mg/kg, 4 h, n = 3, read-out: B:P ratio Mean ± SD): 0.3 ± 0.15
- concentration at 4 h (male, C57BL/6, mouse, brain, iv, 1 mg/kg, IV 1 mg/kg, 4 h, n = 3, read-out: Brain Parenchyma Concentration Mean ± SD): 3.9 nM
- Kp at 0.25 h (male, C57BL/6, mouse, brain, iv, 3 mg/kg, IV 3 mg/kg, 0.25 h, individual mice, read-out: B:P ratio Individual): 0.042
- concentration at 0.25 h (male, C57BL/6, mouse, brain, iv, 3 mg/kg, IV 3 mg/kg, 0.25 h, individual mice, read-out: Brain Parenchyma Concentration Individual): 31.1 nM
- Kp at 0.25 h (male, C57BL/6, mouse, brain, iv, 3 mg/kg, IV 3 mg/kg, 0.25 h, n = 3, read-out: B:P ratio Mean ± SD): 0.042
- concentration at 0.25 h (male, C57BL/6, mouse, brain, iv, 3 mg/kg, IV 3 mg/kg, 0.25 h, n = 3, read-out: Brain Parenchyma Concentration Mean ± SD): 29.5 nM
